From publication PMC11224403, “Des-acyl ghrelin reduces alcohol intake and alcohol-induced reward in rodents” (Translational Psychiatry, 2024)

What was measured:
[1] = test system: human transporter of dopamine (DAT); test: Transporter inhibition in recombinant cell line (neurotransmitter transporter uptake assay), DAT; format: cell-based; details: 8.3 µM DAG; CHO-K1 cells, 3 h incubation, fluorescence dye
[2] = test system: male mice; test: Locomotor activity test, alcohol-induced stimulation and DAG per se, mice; format: in vivo, NMRI mice
Description: Male and female Rcc Han Wistar rats (8–12 weeks old at arrival; Envigo, Horst, Netherlands) were used for the alcohol drinking and locomotor activity experiments as they drink alcohol to intoxicating levels. For in vivo microdialysis studies male Wistar rats (Charles River, Calco, Italy) were used as they display robust dopamine levels in NAc shell after alcohol injection. […] All rodents were allowed to habituate to the animal facility at least one week before they entered an experiment. […] The sample sizes of each experiment were based on previous experience in which statistical significance has been detected. The person who conducted the experiments, and analyzed the collected data was aware of the treatment allocation. Only preset exclusion criteria were used when analyzing the data obtained in attempts to exclude confounding factors in analyzing data. In the alcohol drinking experiments leaking bottles and low alcohol consumption (<3.0 g/kg for males; <3.5 g/kg for females) were preset exclusion criteria. The preset exclusion criterion in the ex vivo HPLC-EC, ELISA, and recombinant cell line experiments was contamination of the sample. Misplaced probes, technical difficulties, and damages to the surgery area were preset exclusion criteria for the in vivo microdialysis experiment. Intra-cage male aggression was the preset exclusion criterion for the locomotor activity and CPP experiments. To minimize tentative confounding factors, the order of treatments was stratified, with treatments being mixed for each animal cage and for each apparatus used as well as balancing the alcohol intake between future treatment groups.
Alcohol was in the behavioral and neurochemical tests injected (intraperitoneally, IP) 5 min before the test.
Locomotor activity tests were conducted in ventilated and dim-lit (4 lux) open field arenas (420 × 420 × 200 mm; Med Associates Inc; Georgia, Vermont, USA). Infra-red beams detected distance traveled, number of jumps, vertical counts, average velocity, stereotypic counts, number of inner zone entries, and time spent in the inner/outer zones of each animal.
In the first test, after 60 min of habituation, male (n = 24) or female (n = 24) rats were injected with vehicle or DAG (0.5, 1.0, or 2.0 mg/kg). 15 min later the activity was monitored for another 60 min. In the second locomotor activity experiment, male mice (n = 32) were allowed to habituate for 60 min. After that, they were injected with vehicle or DAG (0.25, 0.5, or 1.0 mg/kg). After 15 min the activity was monitored for another 60 min.
Therefore, male mice were (n = 32) injected with DAG (1.0 mg/kg) or vehicle 15 min before alcohol or vehicle. The activity registration started 5 min later and was recorded for an additional 60 min. Identical locomotor activity experiments were conducted in new male mice (n = 32), where a lower dose of DAG (0.5 mg/kg) was combined with alcohol.
The data from drinking experiments were analyzed by unpaired t-test or repeated two-way ANOVA. A two-tailed unpaired t-test analyzed the ELISA, ex vivo HPLC-EC, and cFOS data. In addition, the Pearson test correlated the serum levels and the mean values of alcohol intake in rats. A one-way ANOVA with Bonferroni post hoc tests and unpaired t-test analyzed the locomotor activity and CPP data, respectively. The in vivo microdialysis experiments were evaluated by a repeated two-way ANOVA followed by the Bonferroni post hoc test.

[3] = test system: SERT; test: Transporter inhibition in recombinant cell line, SERT; format: cell-based, human; details: 8.3 µM DAG; recombinant cells, 3 h incubation, fluorescence dye
[4] = test system: NET; test: Transporter inhibition in recombinant cell line, NET; format: cell-based, human; details: 8.3 µM DAG; recombinant cells, 3 h incubation, fluorescence dye

des-acyl ghrelin (GSSFLSPEHQRVQQRKESKKPPAKLQPR; Ghrelin-28 non-acylated; UniProt Q9UBU3 24-51, looked up) [DAG, non-octanoylated form of ghrelin; purchased from Tocris (printed Tocrise Bioscience), dissolved in 0.9% NaCl]
inhibition of DAT [1]: no inhibition | alcohol-induced locomotor stimulation (effect of DAG) ([2]; DAG 0.5 mg/kg plus alcohol, n = 8 per group (vehicle-vehicle one removed)): reduced but did not block (P = 0.5319) | alcohol-induced locomotor stimulation (effect of DAG) ([2]; DAG 1 mg/kg 15 min before alcohol 1.75 g/kg IP, n = 8 per group): prevented the alcohol-induced locomotor stimulation (P = 0.0305) | locomotor activity, DAG per se ([2]; DAG 1 mg/kg without alcohol, n = 8 per group): did not alter the activity of the mice (P > 0.9999) | locomotor activity, DAG per se, dose finding ([2]; DAG 0.25, 0.5 or 1.0 mg/kg, 60 min recording, n = 8 per group, data not shown): did not influence locomotor activity | inhibition of SERT [3]: no inhibition | inhibition of NET [4]: no inhibition
